Measured values reported in patent US20060089378A1 (priority 2004, published 2006).

Assays:
Cannabinoid CB2 Receptor = target: T1, Cannabinoid CB2 Receptor (Homo sapiens, UniProt P34972); assay: Binding assay for CB2 agonists or inverse agonists (radioligand competition, membranes of transfected SK-N-MC cells); settings: for inhibition at 0.2 µM: read-out: Cannabinoid CB2 Receptor Binding percent inhibition
T1 construct: expressed in transfected cells

CB1 receptor (human) = CB1 receptor (human) (Homo sapiens, UniProt P21554); assay: cell-based
Cannabinoid CB1 Receptor = target: T2, Cannabinoid CB1 Receptor (Homo sapiens, UniProt P21554); assay: Binding assay for CB1 agonists or inverse agonists (radioligand competition, membranes of transfected SK-N-MC cells)
T2 construct: expressed in transfected cells
T2 sequence (P21554 whole entry): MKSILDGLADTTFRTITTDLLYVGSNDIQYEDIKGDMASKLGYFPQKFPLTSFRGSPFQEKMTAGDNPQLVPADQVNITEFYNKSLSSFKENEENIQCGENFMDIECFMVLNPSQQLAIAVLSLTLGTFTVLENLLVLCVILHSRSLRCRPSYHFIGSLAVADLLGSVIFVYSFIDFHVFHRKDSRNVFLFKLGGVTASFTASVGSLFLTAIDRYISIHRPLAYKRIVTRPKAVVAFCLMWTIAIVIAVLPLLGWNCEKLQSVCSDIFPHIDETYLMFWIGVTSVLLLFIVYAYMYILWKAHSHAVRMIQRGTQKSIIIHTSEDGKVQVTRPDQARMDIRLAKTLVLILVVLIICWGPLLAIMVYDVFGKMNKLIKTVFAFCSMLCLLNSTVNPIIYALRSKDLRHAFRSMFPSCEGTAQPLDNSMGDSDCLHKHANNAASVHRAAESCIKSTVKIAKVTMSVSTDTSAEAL

Sequence of CB1 receptor (human) (P21554 whole entry): as above
T1 sequence (P34972 whole entry): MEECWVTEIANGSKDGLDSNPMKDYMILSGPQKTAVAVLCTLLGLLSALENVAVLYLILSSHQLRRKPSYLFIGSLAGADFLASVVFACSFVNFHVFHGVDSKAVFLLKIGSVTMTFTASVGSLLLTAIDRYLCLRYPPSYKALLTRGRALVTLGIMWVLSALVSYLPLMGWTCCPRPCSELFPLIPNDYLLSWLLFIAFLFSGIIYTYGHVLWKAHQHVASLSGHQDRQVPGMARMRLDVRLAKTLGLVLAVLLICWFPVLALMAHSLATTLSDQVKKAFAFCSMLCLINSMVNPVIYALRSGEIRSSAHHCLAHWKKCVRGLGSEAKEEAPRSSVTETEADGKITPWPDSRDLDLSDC

With C[C@@H](NC(=O)c1nn(-c2ccc(Cl)cc2Cl)c2c1CN(S(C)(=O)=O)C/C2=C\c1ccc(F)cc1)c1ccccc1 [Cpd 17] the inhibition at 0.2 µM (Cannabinoid CB2 Receptor) was 36%, the EC50 (CB1 receptor (human)) was 6 nM and the IC50 (Cannabinoid CB1 Receptor) was 2 nM.
With Cc1ccc(S(=O)(=O)N2C/C(=C\c3ccc(F)cc3)c3c(c(C(=O)N[C@H](C)c4ccccc4)nn3-c3ccc(Cl)cc3Cl)C2)cc1 [Cpd 18] the inhibition at 0.2 µM (Cannabinoid CB2 Receptor) was 48%, the EC50 (CB1 receptor (human)) was 80 nM and the IC50 (Cannabinoid CB1 Receptor) was 10 nM.
CCNC(=O)N1C/C(=C\c2ccc(F)cc2)c2c(c(C(=O)N[C@H](C)c3ccccc3)nn2-c2ccc(Cl)cc2Cl)C1 [Cpd 19, (7E)-1-(2,4-dichloro-phenyl)-7-(4-fluoro-benzylidene)-1,4,6,7-tetrahydro-pyrazolo[4,3-c]pyridine-3,5-dicarboxylic acid 5-ethylamide 3-[(1R)-(1-phenyl-ethyl)-amide]] gave an inhibition at 0.2 µM (Cannabinoid CB2 Receptor) of 10%, an EC50 (CB1 receptor (human)) of 5 nM and an IC50 (Cannabinoid CB1 Receptor) of 7 nM.
With CC(NC(=O)c1nn(-c2ccc(Cl)cc2Cl)c2c1CN(C(=O)OC(C)(C)C)C/C2=C\c1ccc(F)cc1)c1ccccn1 (stereo not drawn) [Cpd 20, (7E)-1-(2,4-dichloro-phenyl)-7-(4-fluoro-benzylidene)-3-(1-pyridin-2-yl-ethylcarbamoyl)-1,4,6,7-tetrahydro-pyrazolo[4,3-c]pyridine-5-carboxylic acid tert-butyl ester] the inhibition at 0.2 µM (Cannabinoid CB2 Receptor) was 14%, the EC50 (CB1 receptor (human)) was 20 nM and the IC50 (Cannabinoid CB1 Receptor) was 40 nM.
In the case of CC(NC(=O)c1nn(-c2ccc(Cl)cc2Cl)c2c1CNC/C2=C\c1ccc(F)cc1)c1ccccn1 (stereo not drawn) [Cpd 21, (7E)-1-(2,4-dichloro-phenyl)-7-(4-fluoro-benzylidene)-4,5,6,7-tetrahydro-1H-pyrazolo[4,3-c]pyridine-3-carboxylic acid (1-pyridin-2-yl-ethyl)-amide], the inhibition at 0.2 µM (Cannabinoid CB2 Receptor) is reported as 5%, the EC50 (CB1 receptor (human)) is reported as 70 nM and the IC50 (Cannabinoid CB1 Receptor) is reported as 50 nM.
CC(=O)N1C/C(=C\c2ccc(F)cc2)c2c(c(C(=O)NC(C)c3ccccn3)nn2-c2ccc(Cl)cc2Cl)C1 (stereo not drawn) [Cpd 22, (7E)-5-acetyl-1-(2,4-dichloro-phenyl)-7-(4-fluoro-benzylidene)-4,5,6,7-tetrahydro-1H-pyrazolo[4,3-c]pyridine-3-carboxylic acid (1-pyridin-2-yl-ethyl)-amide] was tested, and the inhibition at 0.2 µM (Cannabinoid CB2 Receptor) was 2%, the EC50 (CB1 receptor (human)) was 4 nM and the IC50 (Cannabinoid CB1 Receptor) was 30 nM.
Molecule COC(=O)N1C/C(=C\c2ccc(F)cc2)c2c(c(C(=O)NC(C)c3ccccn3)nn2-c2ccc(Cl)cc2Cl)C1 (stereo not drawn) [Cpd 23, (7E)-1-(2,4-dichloro-phenyl)-7-(4-fluoro-benzylidene)-3-(1-pyridin-2-yl-ethylcarbamoyl)-1,4,6,7-tetrahydro-pyrazolo[4,3-c]pyridine-5-carboxylic acid methyl ester] has an inhibition at 0.2 µM (Cannabinoid CB2 Receptor) of 18%, an EC50 (CB1 receptor (human)) of 4 nM and an IC50 (Cannabinoid CB1 Receptor) of 10 nM.
CCNC(=O)N1C/C(=C\c2ccc(F)cc2)c2c(c(C(=O)NC(C)c3ccccn3)nn2-c2ccc(Cl)cc2Cl)C1 (stereo not drawn) [Cpd 24, (7E)-1-(2,4-dichloro-phenyl)-7-(4-fluoro-benzylidene)-1,4,6,7-tetrahydro-pyrazolo[4,3-c]pyridine-3,5-dicarboxylic acid 5-ethylamide 3-[(1-pyridin-2-yl-ethyl)-amide]] was tested, and the inhibition at 0.2 µM (Cannabinoid CB2 Receptor) was 6%, the EC50 (CB1 receptor (human)) was 20 nM and the IC50 (Cannabinoid CB1 Receptor) was 20 nM.
Molecule CC(NC(=O)c1nn(-c2ccc(Cl)cc2Cl)c2c1CN(C(=O)OCc1ccccc1)C/C2=C\c1ccc(F)cc1)c1ccccn1 (stereo not drawn) [Cpd 25, (7E)-1-(2,4-dichloro-phenyl)-7-(4-fluoro-benzylidene)-3-(1-pyridin-2-yl-ethylcarbamoyl)-1,4,6,7-tetrahydro-pyrazolo[4,3-c]pyridine-5-carboxylic acid benzyl ester] has an inhibition at 0.2 µM (Cannabinoid CB2 Receptor) of 17%, an EC50 (CB1 receptor (human)) of 90 nM and an IC50 (Cannabinoid CB1 Receptor) of 50 nM.
For Cc1ccc(S(=O)(=O)N2C/C(=C\c3ccc(F)cc3)c3c(c(C(=O)NC(C)c4ccccn4)nn3-c3ccc(Cl)cc3Cl)C2)cc1 (stereo not drawn) [Cpd 26, (7E)-1-(2,4-dichloro-phenyl)-7-(4-fluoro-benzylidene)-5-(toluene-4-sulfonyl)-4,5,6,7-tetrahydro-1H-pyrazolo[4,3-c]pyridine-3-carboxylic acid (1-pyridin-2-yl-ethyl)-amide], the inhibition at 0.2 µM (Cannabinoid CB2 Receptor) was 24%, the EC50 (CB1 receptor (human)) was 20 nM and the IC50 (Cannabinoid CB1 Receptor) was 30 nM.
CC(NC(=O)c1nn(-c2ccc(Cl)cc2Cl)c2c1CN(S(C)(=O)=O)C/C2=C\c1ccc(F)cc1)c1ccccn1 (stereo not drawn) [Cpd 27, (7E)-1-(2,4-dichloro-phenyl)-7-(4-fluoro-benzylidene)-5-methanesulfonyl-4,5,6,7-tetrahydro-1H-pyrazolo[4,3-c]pyridine-3-carboxylic acid (1-pyridin-2-yl-ethyl)-amide] gave an inhibition at 0.2 µM (Cannabinoid CB2 Receptor) of 16%, an EC50 (CB1 receptor (human)) of 6 nM and an IC50 (Cannabinoid CB1 Receptor) of 5 nM.
For C[C@@H](NC(=O)c1nn(-c2ccc(Cl)cc2Cl)c2c1CNC/C2=C\c1ccc(F)cc1)C1CCCCC1 [Cpd 28, (7E)-1-(2,4-dichloro-phenyl)-7-(4-fluoro-benzylidene)-4,5,6,7-tetrahydro-1H-pyrazolo[4,3-c]pyridine-3-carboxylic acid [(1R)-1-cyclohexyl-ethyl]-amide], the inhibition at 0.2 µM (Cannabinoid CB2 Receptor) was 31%, the EC50 (CB1 receptor (human)) was 8 nM and the IC50 (Cannabinoid CB1 Receptor) was 20 nM.
CC(NC(=O)c1nn(-c2ccc(Cl)cc2Cl)c2c1CN(C)C/C2=C\c1ccc(F)cc1)c1ccccn1 (stereo not drawn) [Cpd 29, (7E)-1-(2,4-dichloro-phenyl)-7-(4-fluoro-benzylidene)-5-methyl-4,5,6,7-tetrahydro-1H-pyrazolo[4,3-c]pyridine-3-carboxylic acid (1-pyridin-2-yl-ethyl)-amide] showed an inhibition at 0.2 µM (Cannabinoid CB2 Receptor) of 6%, an EC50 (CB1 receptor (human)) of 6 nM and an IC50 (Cannabinoid CB1 Receptor) of 60 nM.
With C[C@@H](NC(=O)c1nn(-c2ccc(Cl)cc2Cl)c2c1CN(S(C)(=O)=O)C/C2=C\c1ccc(F)cc1)C1CCCCC1 [Cpd 30, (7E)-1-(2,4-dichloro-phenyl)-7-(4-fluoro-benzylidene)-5-methanesulfonyl-4,5,6,7-tetrahydro-1H-pyrazolo[4,3-c]pyridine-3-carboxylic acid [(1R)-1-cyclohexyl-ethyl]-amide] the inhibition at 0.2 µM (Cannabinoid CB2 Receptor) was 1%, the EC50 (CB1 receptor (human)) was 1 nM and the IC50 (Cannabinoid CB1 Receptor) was 7 nM.
For Cc1ccc(S(=O)(=O)N2C/C(=C\c3ccc(F)cc3)c3c(c(C(=O)N[C@H](C)C4CCCCC4)nn3-c3ccc(Cl)cc3Cl)C2)cc1 [Cpd 31, (7E)-1-(2,4-dichloro-phenyl)-7-(4-fluoro-benzylidene)-5-(toluene-4-sulfonyl)-4,5,6,7-tetrahydro-1H-pyrazolo[4,3-c]pyridine-3-carboxylic acid [(1R)-1-cyclohexyl-ethyl]-amide], the “Cannabinoid CB2 Receptor Binding percent inhibition” value (Cannabinoid CB2 Receptor; test concentration of 0.2 μM, compounds without an IC50 binding value) was 29%, the EC50 (CB1 receptor (human)) was 1100 nM and the IC50 (Cannabinoid CB1 Receptor) was 30 nM.
CCNC(=O)N1C/C(=C\c2ccc(F)cc2)c2c(c(C(=O)N[C@H](C)C3CCCCC3)nn2-c2ccc(Cl)cc2Cl)C1 [Cpd 32, (7E)-1-(2,4-dichloro-phenyl)-7-(4-fluoro-benzylidene)-1,4,6,7-tetrahydro-pyrazolo[4,3-c]pyridine-3,5-dicarboxylic acid 3-{[(1R)-1-cyclohexyl-ethyl]-amide} 5-ethylamide] gave an inhibition at 0.2 µM (Cannabinoid CB2 Receptor) of 6%, an EC50 (CB1 receptor (human)) of 3 nM and an IC50 (Cannabinoid CB1 Receptor) of 20 nM.
In the case of CS(=O)(=O)N1C/C(=C\c2ccc(F)cc2)c2c(c(C(=O)NN3CCCCC3)nn2-c2ccc(Cl)cc2Cl)C1 [Cpd 33, (7E)-1-(2,4-dichloro-phenyl)-7-(4-fluoro-benzylidene)-5-methanesulfonyl-4,5,6,7-tetrahydro-1H-pyrazolo[4,3-c]pyridine-3-carboxylic acid piperidin-1-ylamide], the inhibition at 0.2 µM (Cannabinoid CB2 Receptor) is reported as 15%, the EC50 (CB1 receptor (human)) is reported as 9 nM and the IC50 (Cannabinoid CB1 Receptor) is reported as 30 nM.
With CCNC(=O)N1C/C(=C\c2ccc(F)cc2)c2c(c(C(=O)NN3CCCCC3)nn2-c2ccc(Cl)cc2Cl)C1 [Cpd 34, (7E)-1-(2,4-dichloro-phenyl)-7-(4-fluoro-benzylidene)-1,4,6,7-tetrahydro-pyrazolo[4,3-c]pyridine-3,5-dicarboxylic acid 5-ethylamide 3-piperidin-1-ylamide] the inhibition at 0.2 µM (Cannabinoid CB2 Receptor) was 12%, the EC50 (CB1 receptor (human)) was 9 nM and the IC50 (Cannabinoid CB1 Receptor) was 50 nM.
Molecule COc1ccc(/C=C2\CN(C(=O)OC(C)(C)C)Cc3c(C(=O)N[C@H](C)c4ccccc4)nn(-c4ccc(Cl)cc4Cl)c32)cc1 [Cpd 35, (7E)-1-(2,4-dichloro-phenyl)-7-(4-methoxy-benzylidene)-3-[(1R)-1-phenyl-ethylcarbamoyl]-1,4,6,7-tetrahydro-pyrazolo[4,3-c]pyridine-5-carboxylic acid tert-butyl ester] has an inhibition at 0.2 µM (Cannabinoid CB2 Receptor) of 27%, an EC50 (CB1 receptor (human)) of 4 nM and an IC50 (Cannabinoid CB1 Receptor) of 20 nM.
For COc1ccc(/C=C2\CN(C(=O)OC(C)(C)C)Cc3c(C(=O)NC(C)c4ccccn4)nn(-c4ccc(Cl)cc4Cl)c32)cc1 (stereo not drawn) [Cpd 36, (7E)-1-(2,4-dichloro-phenyl)-7-(4-methoxy-benzylidene)-3-(1-pyridin-2-yl-ethylcarbamoyl)-1,4,6,7-tetrahydro-pyrazolo[4,3-c]pyridine-5-carboxylic acid tert-butyl ester], the inhibition at 0.2 µM (Cannabinoid CB2 Receptor) was 27%, the EC50 (CB1 receptor (human)) was 6 nM and the IC50 (Cannabinoid CB1 Receptor) was 40 nM.
With COc1ccc(/C=C2\CN(C(=O)OC(C)(C)C)Cc3c(C(=O)NN4CCCCC4)nn(-c4ccc(Cl)cc4Cl)c32)cc1 [Cpd 37, (7E)-1-(2,4-dichloro-phenyl)-7-(4-methoxy-benzylidene)-3-(piperidin-1-ylcarbamoyl)-1,4,6,7-tetrahydro-pyrazolo[4,3-c]pyridine-5-carboxylic acid tert-butyl ester] the inhibition at 0.2 µM (Cannabinoid CB2 Receptor) was 27%, the EC50 (CB1 receptor (human)) was 5 nM and the IC50 (Cannabinoid CB1 Receptor) was 90 nM.
With COc1ccc(/C=C2\CNCc3c(C(=O)N[C@H](C)c4ccccc4)nn(-c4ccc(Cl)cc4Cl)c32)cc1 [Cpd 38, (7E)-1-(2,4-dichloro-phenyl)-7-(4-methoxy-benzylidene)-4,5,6,7-tetrahydro-1H-pyrazolo[4,3-c]pyridine-3-carboxylic acid [(1R)-1-phenyl-ethyl]-amide] the inhibition at 0.2 µM (Cannabinoid CB2 Receptor) was 25%, the EC50 (CB1 receptor (human)) was 5 nM and the IC50 (Cannabinoid CB1 Receptor) was 10 nM.
